Consider 14 compounds from US9212178B2, “Substituted pyrimidine compounds and their use as SYK inhibitors” (Genosco, priority 2013, dated 2015).

Experiment [1] relates to THP-1 cells. Kind of experiment: SYK-dependent TNF-α release assay (IgG stimulation), ELISA. It counts as cell-based. The following applies: THP-1 cells on human IgG-coated plate, 18 hours; read-out: TNF-α release inhibition, IgG stimulation IC50. The protocol:
In order to address cellular potency of Compounds of Formula (I), TNF-a production was measured on treatment of a series of concentration of SYK inhibitor in THP-1 cells.
For SYK-dependent TNF-α release assay (i.e., via IgG stimulation), THP-1 cells derived from human monocytic cells were obtained from the American Type Culture Collection (ATCC, Manassas, Va.). This cell line was maintained with a Roswell Park Memorial Institute (RPMI) medium (GIBCO) containing 10% fetal bovine serum (FBS; GIBCO) and 0.05 mM solution of 2-mercaptoethanol. The THP-1 cells were seeded at 1×10^5 cells/100 μL/well into human IgG (10 ng/well, INVITROGEN)-coated 96 well culture plate, and serially diluted compound was then added. After an 18 hours of incubation period at 37° C., supernatants were collected for the determination of the TNF-α level by enzyme-linked immunosorbent assay (ELISA), and the remaining cells were subjected to an MTT (yellow tetrazolium salt) assay to determine the cytotoxic effects of the compound. The IC50 value of the test compound was calculated at Gradpad Prism 5 unless otherwise specified.
In general terms: An ELISA detects its analyte on a solid surface through an enzyme-linked reagent.

Experiment [2] addresses full-length human SYK (Homo sapiens (Human), UniProt P43405). Kind of experiment: Inhibition of enzymatic SYK kinase activity (LANCE Ulight TK peptide). The experiment is classed as biochemical. The protocol: Compounds of the present invention were assayed to measure their capacity to inhibit a spleen tyrosine kinase (SYK).
Compounds of the invention were initially diluted to 10 mM in 100% DMSO (CALBIOCHEM™) for storage and made into kinase buffer solution to create a compound concentration ranging from 1 uM and 10 uM. Serial dilutions of compounds of the invention were dispensed into a 96-well plate (GREINER BIOSCIENCES™) at 6 μL each. Purified full-length human SYK (CARNA BIOSCIENCES™) were diluted in kinase buffer and added to the compound solutions and pre-incubated for 30 minutes at room temperature. […] The reaction mixture was incubated for 1 hour. Following the incubation, the stop solution made with EDTA, water, and Lance detection buffer ([…]™) was added (12 μL each) to stop phosphorylation.
Background: In TR-FRET formats the signal depends on donor and acceptor labels being close together.

For experiment [3], the system named is Collagen-induced arthritis in DBA/1J mice. Kind of experiment: Collagen-induced arthritis (CIA) mouse model, macroscopic paw scoring. The following applies: 30 mg/kg/day once daily oral gavage, vehicle = 100.0. The experiment is classed as in vivo. The protocol:
CIA mouse model was induced in DBA/1J mice (Japan Charles River Breeding Laboratories, Kanagawa, Japan) with 5 to 6 weeks of age. Animals were maintained at a temperature of 20±5° C. and a relative humidity of 40˜60%.
Bovine type II collagen (CII, 2 mg/ml dissolved in 0.05 M acetic acid, Chondrex, Redmond, Wash.) was emulsified in equal volumes of Freund's complete adjuvant (4 mg/ml of Mycobacterium tuberculosis strain H37Ra; Chondrex, Redmond, Wash.). On day 0, mice were immunized intradermally at the base of the tail with 100 μg bovine type II collagen emulsified in Freund's complete adjuvant. On day 21, all mice were boosted with an intraperitoneal injection of 100 μg type II collagen.
These compounds were dissolved in NMP/20% cyclodextrin/PEG400 5:45:50 solution and filtered by […] membrane filter. All the test substances were administered once daily at 30 mg/kg/day by oral gavage for 3 weeks.
The gradual onset of arthritis usually starts approximately 3 weeks after initial immunization. The progression of CIA was evaluated by the macroscopic scoring of paws at intervals of 3 days. The edema and swelling of each paw was scored visually as was described previously, using a scale of 0-4, where 0=no visible abnormalities, 1=mild redness or swelling of the wrist or up to three inflamed digits, 2=more than three inflamed digits or moderate redness and swelling of the ankle or wrist, 3=severe ankle and wrist inflammation, 4=extensive ankle and wrist inflammation including all digits. Therefore, the score of each mouse was calculated for the four limbs (maximum total score of 16 for each mouse) (Courtenay J S, Dallman M J, Dayan A D, et al., Immunisation against heterologous type II collagen induces arthritis in mice, Nature, 1980, 283, 666-668)
Arthritis was considered to be present if the score was >2. The blind scoring was performed by four independent observers. In this study, data was calculated by following equation. […] Results

The mark [4] stands for this setting: ATP at Km (15 uM), 30 min pre-incubation.

Read-outs that look alike come from different tables or passages of the source.

`CCn1cc(C(=O)C2CC2)c2cc(Nc3nccc(-n4cc(CN5C[C@H](O)CO5)c(C)n4)n3)ccc21` [Compound 6, (S)-cyclopropyl(1-ethyl-5-(4-(4-((4-hydroxyisoxazolidin-2-yl)methyl)-3-methyl-1H-pyrazol-1-yl)pyrimidin-2-ylamino)-1H-indol-3-yl)methanone]: the IC50 (usually the concentration needed to halve the response being measured) in experiment [1] came out at 57 nM; in experiment [2] (setting [4]), 4.69 nM. Moreover, the “CIA index (arthritic score of test group / vehicle group x 100)” value in experiment [3] (day 4) was determined as 0.0 ± 0.0%; in experiment [3] (day 7), 10.9 ± 8.9%; in experiment [3] (day 10), 32.3 ± 11.5%; in experiment [3] (day 13), 45.3 ± 10.5%; in experiment [3] (day 17), 53.3 ± 7.4%; in experiment [3] (day 19), 63.4 ± 4.0%.

Turning to `Cc1cnc(Nc2ccc3c(c2)c(C(=O)C2CC2)cn3C)nc1-n1cc(CN2C[C@H](O)CO2)c(C)n1` [Compound 19, (S)-cyclopropyl(5-(4-(4-((4-hydroxyisoxazolidin-2-yl)methyl)-3-methyl-1H-pyrazol-1-yl)-5-methylpyrimidin-2-ylamino)-1-methyl-1H-indol-3-yl)methanone], the concentration for half-maximal inhibition (IC50) worked out at 821 nM in experiment [1] and 271 nM in experiment [2] (setting [4]).

As to `CCn1cc(C(=O)C2CC2)c2cc(Nc3nccc(-n4cc(CN5C[C@@H](O)CO5)c(C)n4)n3)ccc21` [Compound 11, (R)-cyclopropyl(1-ethyl-5-(4-(4-((4-hydroxyisoxazolidin-2-yl)methyl)-3-methyl-1H-pyrazol-1-yl)pyrimidin-2-ylamino)-1H-indol-3-yl)methanone], the results for the half-inhibitory concentration (IC50) in experiment [1] and in experiment [2] (setting [4]) were 89 nM and 6.28 nM, respectively.

In the case of `Cc1nn(-c2ccnc(Nc3ccc4c(c3)c(C(=O)C3CC3)cn4C(C)C)n2)cc1CN1C[C@H](O)CO1` [Compound 8, (S)-cyclopropyl(5-(4-(4-((4-hydroxyisoxazolidin-2-yl)methyl)-3-methyl-1H-pyrazol-1-yl)pyrimidin-2-ylamino)-1-isopropyl-1H-indol-3-yl)methanone], the IC50 in experiment [1] came to 97 nM; in experiment [2] (setting [4]), 7.37 nM.

As to `Cc1nn(-c2ccnc(Nc3ccc4c(c3)c(C(=O)C3CC3)cn4CC(F)(F)F)n2)cc1CN1CC(C)(O)CO1` (centres unmarked) [Compound 16, cyclopropyl(5-(4-(4-((4-hydroxy-4-methylisoxazolidin-2-yl)methyl)-3-methyl-1H-pyrazol-1-yl)pyrimidin-2-ylamino)-1-(2,2,2-trifluoroethyl)-1H-indol-3-yl)methanone], the half-inhibitory concentration (IC50) in experiment [1] turned out to be 226 nM; in experiment [2] (setting [4]), 14.2 nM.

For `CCn1cc(C(=O)C2CC2)c2cc(Nc3nccc(-n4cc(C)c(CN5C[C@H](O)CO5)c4)n3)ccc21` [Compound 29, (S)-cyclopropyl(1-ethyl-5-(4-(3-((4-hydroxyisoxazolidin-2-yl)methyl)-4-methyl-1H-pyrrol-1-yl)pyrimidin-2-ylamino)-1H-indol-3-yl)methanone], the IC50 was 70 nM in experiment [1] and 69.5 nM in experiment [2].

For the compound `COc1cc(Nc2ncc(F)c(Nc3ccc4c(n3)N(COP(=O)(O)O)C(=O)C(C)(C)O4)n2)cc(OC)c1OC` [Compound R788, reference compound], the “CIA index (arthritic score of test group / vehicle group x 100)” value in experiment [3] (day 4) was 36.7 ± 22.7%; in experiment [3] (day 7) it was 82.2 ± 45.2%; in experiment [3] (day 10), 80.3 ± 27.3%; in experiment [3] (day 13) it was 97.8 ± 25.0%; in experiment [3] (day 17), 73.3 ± 11.2%; in experiment [3] (day 19), 72.1 ± 11.2%.

Turning to `Cc1nn(-c2ccnc(Nc3ccc4c(c3)c(C(=O)C3CC3)cn4C)n2)cc1CN1CC(C)(O)CO1` (centres unmarked) [Compound 14, cyclopropyl(5-(4-(4-((4-hydroxy-4-methylisoxazolidin-2-yl)methyl)-3-methyl-1H-pyrazol-1-yl)pyrimidin-2-ylamino)-1-methyl-1H-indol-3-yl)methanone], the IC50 in experiment [1] was determined as 789 nM; in experiment [2] (setting [4]), 41.7 nM.

For the compound `Cc1nn(-c2ccnc(Nc3ccc4c(c3)c(C(=O)C(C)C)cn4C)n2)cc1CN1C[C@H](O)CO1` [Compound 2, (S)-1-(5-(4-(4-((4-hydroxyisoxazolidin-2-yl)methyl)-3-methyl-1H-pyrazol-1-yl)pyrimidin-2-ylamino)-1-methyl-1H-indol-3-yl)-2-methylpropan-1-one], the figures for the IC50 in experiment [1] and in experiment [2] (setting [4]) were 67 nM and 8.63 nM, respectively.

Take `Cc1nn(-c2ccnc(Nc3ccc4c(c3)c(C(=O)C(F)(F)F)cn4C)n2)cc1CN1C[C@H](O)CO1` [Compound 3, (S)-2,2,2-trifluoro-1-(5-(4-(4-((4-hydroxyisoxazolidin-2-yl)methyl)-3-methyl-1H-pyrazol-1-yl)pyrimidin-2-ylamino)-1-methyl-1H-indol-3-yl)ethanone]: the concentration for half-maximal inhibition (IC50) in experiment [1] is 48 nM; in experiment [2] (setting [4]), 2.82 nM.

Take `Cc1nn(-c2ccnc(Nc3ccc4c(c3)c(S(C)(=O)=O)nn4C)n2)cc1CN1C[C@H](O)CO1` [Compound 26, (S)-2-((3-methyl-1-(2-(1-methyl-3-(methylsulfonyl)-1H-indazol-5-ylamino)pyrimidin-4-yl)-1H-pyrazol-4-yl)methyl)isoxazolidin-4-ol]: the values for the IC50 in experiment [1] and in experiment [2] (setting [4]) were 1060 nM and 87.1 nM, respectively.

Regarding `CCn1cc(C(=O)C2CC2)c2cc(Nc3nccc(-n4cc(CN5C[C@H](O)CO5)c(C5CC5)n4)n3)ccc21` [Compound 25, (S)-cyclopropyl(5-(4-(3-cyclopropyl-4-((4-hydroxyisoxazolidin-2-yl)methyl)-1H-pyrazol-1-yl)pyrimidin-2-ylamino)-1-ethyl-1H-indol-3-yl)methanone], the IC50 is 465 nM in experiment [1] and 5.85 nM in experiment [2] (setting [4]).

Consider `Cc1nn(-c2ccnc(Nc3ccc4c(c3)c(C(=O)C(F)F)cn4C)n2)cc1CN1C[C@H](O)CO1` [Compound 4, (S)-2,2-difluoro-1-(5-(4-(4-((4-hydroxyisoxazolidin-2-yl)methyl)-3-methyl-1H-pyrazol-1-yl)pyrimidin-2-ylamino)-1-methyl-1H-indol-3-yl)ethanone], for which the IC50 in experiment [1] was found to be 45 nM; in experiment [2] (setting [4]), 9.42 nM.

In the case of `O=C(c1cn(CC(F)F)c2ccc(Nc3nccc(-n4cc(CN5C[C@H](O)CO5)cn4)n3)cc12)C1CC1` [Compound 33, (S)-cyclopropyl(1-(2,2-difluoroethyl)-5-(4-(4-((4-hydroxyisoxazolidin-2-yl)methyl)-1H-pyrazol-1-yl)pyrimidin-2-ylamino)-1H-indol-3-yl)methanone], the figures for the 50% inhibitory concentration (IC50) in experiment [1] and in experiment [2] (setting [4]) were 60 nM and 5.34 nM, respectively.
